Test [1] addresses T1, HiBit-KRAS^G12C (Homo sapiens, UniProt P01116, G12C). Description: HiBit degradation assay in MiaPaCa-2 HiBit-KRas^G12C cells. In kind it is cell-based. The following applies: 24 hours. On the procedure: Reagents. SW1573 (CRL-2170) and MiaPaCa-2 (CRL-1420) cells were purchased from ATCC. Both cell lines are […] for the G12C mutation in KRAS. SW1573 cells were cultured in DMEM+F12+Glutamax (+Sodium Bicarbonate, +sodium pyruvate, Thermofisher scientific, #10565) supplemented with 10% FBS (Thermofisher scientific, #2060357) and 1% Antibiotic-Antimycotic (Thermofisher scientific, #15240096). MiaPaCa-2 cells were cultured in DMEM+Glutamax media (Thermofisher scientific, #10566) supplemented with 10% FBS (Thermofisher scientific, #2060357) and 1% Antibiotic-Antimycotic (Thermofisher scientific, #15240096). For degradation assays, 384 well plates were purchased from Corning (Corning® CellBIND® 384-well Flat Clear Bottom Black Polystyrene Microplates, Low Flange, #3770). Gambogic acid was purchased from Selleckchem (#S2448). Alamar blue was purchased from Thermofisher scientific (A50101) and used according to manufacturer instructions. The Nano-Glo® HiBit Lytic Detection System and Nano-Glo® HiBit Blotting System were purchased from Promega (#N3050 and #N2410) and used according to manufacturer instructions.
To create the MiaPaCa-2 HiBit-KRAS^G12C cell line, CRISPR-Cas9 was used to insert the HiBit tag onto the N-terminus of one or more of the four endogenous KRAS^G12C alleles. After knock-in of the tag, individual clones were isolated by single cell dilution and screened for HiBit insertion by PCR. Clones containing the HiBit tag were sequenced and one was identified that contained the desired HiBit-KRAS^G12C sequence at one allele while the remaining three KRAS^G12C alleles were unaffected. This line was used for all subsequent studies.
Either SW1573 HiBit-KRas^G12C or MiaPaCa-2 HiBit-KRas^G12C cells were plated at 9000 cells/well in a 384 well plate (Corning #3770). Exemplary heterobifunctional molecules and positive controls were diluted in the appropriate cell media and applied to the plated cells resulting in a final concentration titration of 10 μM to 20 nM in either 0.1% or 0.5% dimethyl sulfoxide (DMSO). Gambogic acid was used as a positive control for cytotoxicity and titrated from 10 μM to 78 nM. All assays were performed in triplicate. Cells were treated with compounds for 24 hours at 37° C. in an incubator containing 5% CO2. Following treatment, alamar blue was used to determine if any compounds led to a loss in cell viability after 24 hours. The 10× alamar blue reagent was added to a final concentration of 1× as recommended by the manufacturer and cells were returned to the incubator for 4 hours. Plates were then allowed to equilibrate to room temperature and fluorescence was measured using a Perkin-Elmer EnVision. After completion of the fluorescence read, the liquid from each well was removed and the cells were washed with PBS. The Nano-Glo® HiBiT detection reagent was prepared according to the manufacturer's instructions and added to each well after the PBS wash was removed. Following incubation at room temperature for 45 minutes, the luminescence was read using the ultra-sensitive luminescence aperture on the Envision instrument.
Fluorescence values from the alamar blue treatment were normalized to the DMSO only control for each compound titration. We hypothesized that compounds that led to a ≥50% loss in cell viability of the KRAS-independent SW1573 HiBit-KRas^G12C cells were likely generally cytotoxic and loss of HiBit-KRAS^G12C signal from these compounds may be due to lower cell number and not specific KRAS^G12C degradation. These points were therefore excluded from the data analysis for degradation. […]

Test [2] deals with T1, HiBit-KRAS^G12C. Description: HiBit degradation assay in SW1573 HiBit-KRas^G12C cells. The following applies: 24 hours. Also on record: expressed in transfected cells; host or cells: SW1573 (clone E6), modified pcDNA3.1 vector, TK promoter. It is filed as cell-based. The method in brief: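 SW1573 cells stably expressing N-terminally HiBit-tagged KRAS G12C, under the TK promoter, were treated 24 h at 37 °C with 10 μM to 20 nM compound in 0.1% or 0.5% DMSO. Residual HiBit luminescence normalised to DMSO and fitted with a 4-parameter model for DC50 and Dmax. Points with ≥50% viability loss (alamar blue) excluded.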
A general note: HiBiT is a short tag that completes a luciferase, so light tracks the accessible tagged protein.

Where [3] appears, read: SW1573, read-out: KRas^G12C-HiBit (SW1573; 0.1% DMSO) Dmax**, SW1573 HiBit-KRas^G12C, 0.1% DMSO.
The mark [4] stands for this setting: SW1573 HiBit-KRas^G12C, 0.1% DMSO, read-out: KRas^G12C-HIBit (SW1573; 0.1% DMSO) DC50*.
[5] abbreviates: read-out: KRas^G12C-HiBiT (MiaPaCa; 0.5% DMSO) IC50, MiaPaCa-2 HiBit-KRas^G12C cells, 0.5% DMSO.
The mark [6] stands for this setting: read-out: KRas^G12C-HiBiT (SW1573; 0.5% DMSO) IC50***, SW1573 HiBit-KRas^G12C, 0.5% DMSO.

Structures are written as SMILES.

T1 sequence (P01116 1-186 isoform P01116-2 G12C limits assumed): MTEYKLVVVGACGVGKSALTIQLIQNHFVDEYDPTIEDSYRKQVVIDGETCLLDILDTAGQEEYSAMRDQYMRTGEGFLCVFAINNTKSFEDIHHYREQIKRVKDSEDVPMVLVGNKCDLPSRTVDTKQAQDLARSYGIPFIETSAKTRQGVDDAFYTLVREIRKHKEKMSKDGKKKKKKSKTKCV

With `C=CC(=O)N1CCN(c2nc(O[C@H](C)CN3CCN(CCOC4CCN(CC(=O)N[C@H](C(=O)N5C[C@H](O)C[C@H]5C(=O)N[C@@H](C)c5ccc(-c6scnc6C)cc5)C(C)(C)C)CC4)CC3)nc3c(F)c(-c4cc(O)cc5ccccc45)c(Cl)cc23)CC1` [Compound 55, (2S,4R)-1-[(2S)-2-{2-[4-(2-{4-[(2R)-2-{[6-chloro-8-fluoro-7-(3-hydroxynaphthalen-1-yl)-4-[4-(prop-2-enoyl)piperazin-1-yl]quinazolin-2-yl]oxy}propyl]piperazin-1-yl}ethoxy)piperidin-1-yl]acetamido}-3,3-dimethylbutanoyl]-4-hydroxy-N-[(1S)-1-[4-(4-methyl-1,3-thiazol-5-yl)phenyl]ethyl]pyrrolidine-2-carboxamide], the DC50 at HiBit-KRAS^G12C [1] (read-out: KRas^G12C-HiBiT (MiaPaCa; 0.1% DMSO) IC50, MiaPaCa-2 HiBit-KRas^G12C cells, 0.1% DMSO) is greater than 1000 nM; on HiBit-KRAS^G12C [2] (setting [4]) it was 100 to 1000 nM. On HiBit-KRAS^G12C [2] (setting [3]), the Dmax was less than 35%.

On to `C=CC(=O)N1CCN(c2nc(OCCN3CCC(COc4cc([C@@H](C(=O)N5C[C@@H](O)C[C@H]5C(=O)N[C@@H](C)c5ccc(-c6scnc6C)cc5)C(C)C)on4)CC3)nc3c(F)c(-c4cc(O)cc5ccccc45)c(Cl)cc23)C[C@@H]1CC#N` (atropisomer, axis not shown) [Compound 105, (2S,4S)-1-[(2S)-2-[3-({1-[2-({6-chloro-4-[(3S)-3-(cyanomethyl)-4-(prop-2-enoyl)piperazin-1-yl]-8-fluoro-7-(3-hydroxynaphthalen-1-yl)quinazolin-2-yl}oxy)ethyl]piperidin-4-yl}methoxy)-1,2-oxazol-5-yl]-3-methylbutanoyl]-4-hydroxy-N-[(1S)-1-[4-(4-methyl-1,3-thiazol-5-yl)phenyl]ethyl]pyrrolidine-2-carboxamide], for which the Dmax at HiBit-KRAS^G12C [1] (MIA PaCa-2, MiaPaCa-2 HiBit-KRas^G12C cells, 0.5% DMSO, maximum degradation, read-out: KRas^G12C-HiBiT (MiaPaCa; 0.5% DMSO) DMax) is less than 35%. Besides, the DC50 on HiBit-KRAS^G12C [1] (setting [5]) was less than 100 nM; on HiBit-KRAS^G12C [2] (setting [6]), greater than 1000 nM.

Regarding `C=CC(=O)N1CCN(c2nc(OCCN3CCC(OCCOc4cc([C@@H](C(=O)N5C[C@H](O)C[C@H]5C(=O)N[C@@H](C)c5ccc(-c6scnc6C)cc5)C(C)C)on4)CC3)nc3c(F)c(-c4cc(O)cc5ccccc45)c(Cl)cc23)C[C@@H]1CC#N` [Compound 22, (2S,4R)-1-[(2S)-2-{3-[2-({1-[2-({6-chloro-4-[(3S)-3-(cyanomethyl)-4-(prop-2-enoyl)piperazin-1-yl]-8-fluoro-7-(3-hydroxynaphthalen-1-yl)quinazolin-2-yl}oxy)ethyl]piperidin-4-yl}oxy)ethoxy]-1,2-oxazol-5-yl}-3-methylbutanoyl]-4-hydroxy-N-[(1S)-1-[4-(4-methyl-1,3-thiazol-5-yl)phenyl]ethyl]pyrrolidine-2-carboxamide], the Dmax on HiBit-KRAS^G12C [1] (MIA PaCa-2, MiaPaCa-2 HiBit-KRas^G12C cells, 0.1% DMSO, maximum degradation, read-out: KRas^G12C-HiBiT (MiaPaCa; 0.1% DMSO) DMax) was less than 35%; at HiBit-KRAS^G12C [2] (SW1573, SW1573 HiBit-KRas^G12C, 0.1% DMSO, read-out: KRas^G12C-HiBit (SW1573; 0.1% DMSO) Dmax**), less than 35%. In addition, the DC50 at HiBit-KRAS^G12C [2] (setting [4]) was in the range of 100 to 1000 nM.

On to `C=C(F)C(=O)N1CCN(c2nc(OCCN3CCC(COc4cc([C@@H](C(=O)N5C[C@H](O)C[C@H]5C(=O)N[C@@H](C)c5ccc(-c6scnc6C)cc5)C(C)C)on4)CC3)nc3c(F)c(-c4cc(O)cc5ccccc45)c(Cl)cc23)C[C@@H]1CC#N` [Compound 171, (2S,4R)-1-[(2S)-2-[3-({1-[2-({6-chloro-4-[(3S)-3-(cyanomethyl)-4-(2-fluoroprop-2-enoyl)piperazin-l-yl]-8-fluoro-7-(3-hydroxynaphthalen-1-yl)quinazolin-2-yl}oxy)ethyl]piperidin-4-yl}methoxy)-1,2-oxazol-5-yl]-3-methylbutanoyl]-4-hydroxy-N-[(1S)-1-[4-(4-methyl-1,3-thiazol-5-yl)phenyl]ethyl]pyrrolidine-2-carboxamide], for which the DC50 on HiBit-KRAS^G12C [1] (setting [5]) and at HiBit-KRAS^G12C [2] (setting [6]) was greater than 1000 nM in each case.

With `C=CC(=O)N1CCN(c2nc(OCCN3CCC(COCC(=O)N[C@H](C(=O)N4C[C@H](O)C[C@H]4C(=O)N[C@@H](C)c4ccc(-c5scnc5C)cc4)C(C)(C)C)CC3)nc3c(F)c(-c4cc(O)cc5ccccc45)c(Cl)cc23)C[C@@H]1CC#N` (atropisomer, axis not shown) [Compound 110, (2S,4R)-1-[(2S)-2-[2-({1-[2-({6-chloro-4-[(3S)-3-(cyanomethyl)-4-(prop-2-enoyl)piperazin-1-yl]-8-fluoro-7-(3-hydroxynaphthalen-1-yl)quinazolin-2-yl}oxy)ethyl]piperidin-4-yl}methoxy)acetamido]-3,3-dimethylbutanoyl]-4-hydroxy-N-[(1S)-1-[4-(4-methyl-1,3-thiazol-5-yl)phenyl]ethyl]pyrrolidine-2-carboxamide], on HiBit-KRAS^G12C [1] (MiaPaCa-2 HiBit-KRas^G12C cells, 0.5% DMSO, maximum degradation), the “KRas^G12C-HiBiT (MiaPaCa; 0.5% DMSO) DMax” value is reported as “C (C ≤ 35)”. Also, at HiBit-KRAS^G12C [2] (SW1573 HiBit-KRas^G12C, 0.5% DMSO), the “KRas^G12C-HiBiT (SW1573; 0.5% DMSO) Dmax**” value was “C (C ≤ 35)”.

As to `C=CC(=O)N1CCN(c2nc(O[C@H](C)CN3CC(N4CCN(CC(=O)N[C@H](C(=O)N5C[C@H](O)C[C@H]5C(=O)N[C@@H](C)c5ccc(-c6scnc6C)cc5)C(C)(C)C)CC4)C3)nc3c(F)c(-c4cc(O)cc5ccccc45)c(Cl)cc23)CC1` [Compound 62, (2S,4R)-1-[(2S)-2-[2-(4-{1-[(2R)-2-{[6-chloro-8-fluoro-7-(3-hydroxynaphthalen-1-yl)-4-[4-(prop-2-enoyl)piperazin-1-yl]quinazolin-2-yl]oxy}propyl]azetidin-3-yl}piperazin-1-yl)acetamido]-3,3-dimethylbutanoyl]-4-hydroxy-N-[(1S)-1-[4-(4-methyl-1,3-thiazol-5-yl)phenyl]ethyl]pyrrolidine-2-carboxamide], the Dmax on HiBit-KRAS^G12C [1] (MIA PaCa-2, read-out: KRas^G12C-HiBiT (MiaPaCa; 0.1% DMSO) DMax, MiaPaCa-2 HiBit-KRas^G12C cells, 0.1% DMSO, maximum degradation) is less than 35%; at HiBit-KRAS^G12C [2] (setting [3]), 35 to 70%. Also, the DC50 on HiBit-KRAS^G12C [2] (setting [4]) was 100 to 1000 nM.

Values taken from patent publication US20220370416A1, “COMPOUNDS AND METHODS FOR TARGETED DEGRADATION OF KRAS” (Arvinas Operations, Inc., priority 2020, published 2022).
